US5225528A, “Cyclic hexapeptide oxytocin antagonists” (priority 1990, dated 1993)
Where two headings read alike, the source gives them in different places. Numbered stars: 1 amine (or outer) side, 2 acyl side, 3 side chain; on linkers, the order of the positions; unused ones are H or OH. Square brackets hold non-standard residues; d marks the D form. Peptide text beside a SMILES is read from it. * marks the point of attachment. dPiz(1,6-dehydro) = O=C(O)[C@H]1CCC=NN1; d1Nal = N[C@H](Cc1cccc2ccccc12)C(=O)O; d2Nal = N[C@H](Cc1ccc2ccccc2c1)C(=O)O; X12 = O=C([C@@H]1CCCNN1[*:1])[*:2]; X1 = O=C([C@H]1C=CCCN1[*:1])[*:2]; Pip(4-aza) = O=C(O)[C@@H]1CNCCN1; X6 = O=C([C@H]1CCCNN1[*:1])[*:2]; dNMeF = CN[C@H](Cc1ccccc1)C(=O)O; hPhe = N[C@@H](CCc1ccccc1)C(=O)O; Pip = O=C(O)[C@@H]1CCCCN1; dPip = O=C(O)[C@H]1CCCCN1; Orn = NCCC[C@H](N)C(=O)O; Boc = CC(C)(C)OC(=O)*

Assays:
[1] = molecular target: T1, AVP-V2 sites (Rattus norvegicus, UniProt Q00788); assay: [^3 H]AVP binding to crude membrane preparation of male rat kidney medulla (AVP-V2 sites); details: for inhibition at 1 µM / [^3 H]-AVP-V2: percent inhibition of radioligand at the given concentration: @ 1,000 (nM)
T1 construct: male rat liver (AVP-V1 sites) or kidney medulla (AVP-V2 sites); from tissue; host or cells: male rat kidney medulla, crude membranes
T1 sequence (Q00788 whole entry): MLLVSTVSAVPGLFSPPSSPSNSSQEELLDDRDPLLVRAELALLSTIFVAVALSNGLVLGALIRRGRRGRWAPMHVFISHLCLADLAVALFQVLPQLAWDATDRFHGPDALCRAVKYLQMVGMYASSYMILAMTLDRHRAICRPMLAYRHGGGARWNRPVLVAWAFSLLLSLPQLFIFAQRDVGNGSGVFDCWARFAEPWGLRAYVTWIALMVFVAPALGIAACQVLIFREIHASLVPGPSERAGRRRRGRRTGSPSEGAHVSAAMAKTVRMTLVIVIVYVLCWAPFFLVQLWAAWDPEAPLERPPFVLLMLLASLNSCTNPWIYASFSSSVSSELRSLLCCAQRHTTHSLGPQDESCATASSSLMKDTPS
Description: (§1) Nonspecific binding (5-10% of the total binding) was determined using 10 μM unlabeled AVP, and the binding reaction was terminated by filtration as described above for the [^3 H]OT binding assay.

[2] = molecular target: T2, uterine OT receptors (Rattus norvegicus, UniProt P70536); assay: [^3 H]OT binding to uterine OT receptors, crude membrane preparation of uteri from DES-treated rats
T2 construct: from tissue; host or cells: uterus of DES-treated rats, crude membranes
T2 sequence (P70536 1-388): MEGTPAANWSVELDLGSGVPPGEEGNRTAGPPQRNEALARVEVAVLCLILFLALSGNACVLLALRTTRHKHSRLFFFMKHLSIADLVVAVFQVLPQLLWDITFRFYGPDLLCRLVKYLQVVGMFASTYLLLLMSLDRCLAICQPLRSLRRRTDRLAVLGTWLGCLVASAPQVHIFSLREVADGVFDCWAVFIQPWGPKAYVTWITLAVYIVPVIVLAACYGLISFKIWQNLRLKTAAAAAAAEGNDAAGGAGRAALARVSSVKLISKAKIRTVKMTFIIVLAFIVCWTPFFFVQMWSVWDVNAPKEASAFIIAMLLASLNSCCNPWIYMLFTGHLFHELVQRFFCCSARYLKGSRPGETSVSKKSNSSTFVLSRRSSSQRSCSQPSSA
Description: Competition studies were conducted at equilibrium (60 minutes; 22° C.) using 1 nM [^3 H]OT in the following assay buffer: 50 mM Tris-HCl, 5 mM MgCl2, and 0.1% BSA, pH 7.4.

[3] = molecular target: T3, AVP-V1 sites (Rattus norvegicus, UniProt P30560); assay: [^3 H]AVP binding to crude membrane preparation of male rat liver (AVP-V1 sites)
T3 construct: crude membrane preparation of male rat liver (AVP-V1 sites); from tissue; host or cells: male rat liver, crude membranes
T3 sequence (P30560 whole entry): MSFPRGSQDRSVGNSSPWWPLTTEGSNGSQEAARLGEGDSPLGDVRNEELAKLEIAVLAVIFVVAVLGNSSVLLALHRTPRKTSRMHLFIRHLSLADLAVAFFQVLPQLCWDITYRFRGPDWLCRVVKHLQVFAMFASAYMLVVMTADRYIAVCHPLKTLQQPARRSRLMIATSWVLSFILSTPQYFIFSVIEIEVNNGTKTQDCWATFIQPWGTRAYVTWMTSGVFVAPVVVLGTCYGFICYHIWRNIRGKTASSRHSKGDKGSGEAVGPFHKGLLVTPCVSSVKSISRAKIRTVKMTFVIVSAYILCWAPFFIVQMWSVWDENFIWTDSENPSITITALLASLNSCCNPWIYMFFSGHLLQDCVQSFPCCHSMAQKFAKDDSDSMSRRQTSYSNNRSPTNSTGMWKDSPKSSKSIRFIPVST
Description: as §1

[4] = rat kidney medulla membranes, 2 nM [^3 H]AVP, read-out: Receptor Binding Results IC50 (nM) [^3 H]-AVP-V2
[5] = Receptor Binding Results IC50 (nM) [^3 H]-AVP-V1
[6] = read-out: Receptor Binding Results IC50 (nM) [^3 H]-AVP-V2
[7] = rat uterus membranes, 1 nM [^3 H]OT, read-out: Receptor Binding Results IC50 (nM) [^3 H]OT
[8] = read-out: Receptor Binding Results IC50 (nM) [^3 H]-AVP-V1
[9] = 0.5 h, read-out: [^3 H]-AVP-V2: percent inhibition of radioligand at the given concentration

CC[C@H](C)[C@@H]1NC(=O)[C@@H](Cc2ccccc2)NC(=O)[C@@H]2CCCN2C(=O)[C@@H](Cc2ccccc2)N(C)C(=O)[C@@H]2CCCN2C(=O)[C@H]2CCCCN2C1=O [Example 7, Cyclo[D-phenylalanyl-L-isolelucyl-D-pipecolyl-L-propyl-D-(N^α Methyl)phenyl-L-prolyl]] (cyclo(I[dPip]P[dNMeF]P[dF]))
IC50 [1, 4]: > 10000 nM | IC50 ([2]; Receptor Binding Results IC50 (nM) [^3 H]OT): 350 nM | IC50 [3, 5]: > 10000 nM

CC[C@H](C)[C@@H]1NC(=O)[C@@H](Cc2ccccc2)NC(=O)[C@@H]2CCCN2C(=O)[C@@H](Cc2ccccc2)N(C)C(=O)[C@@H]2CCCCN2C(=O)[C@H]2CCC=NN2C1=O [Example 112, c-[D-Phenylalanyl-L-isoleucyl-D-Δ-piperazyl-L-pipecolyl-N-methyl-D-phenylalanyl-L-prolyl]] (cyclo(I[dPiz(1,6-dehydro)][Pip][dNMeF]P[dF]))
IC50 [1, 6]: 1170 nM | IC50 [2, 7]: 14.7 nM | IC50 [3, 8]: 3450 nM

CC[C@H](C)[C@@H]1NC(=O)[C@@H](Cc2c[nH]c3ccccc23)NC(=O)[C@@H]2CCCN2C(=O)[C@@H](Cc2c[nH]cn2)NC(=O)[C@H](Cc2c[nH]cn2)NC(=O)[C@H]2CCCN2C1=O [Example 94, c-[D-Tryptophanyl-L-isoleucinyl-D-prolyl-L-histidyl-D-histidyl-L-prolyl]] (cyclo(H[dH]P[dW]I[dP]))
IC50 [1, 4]: > 10000 nM | inhibition at 1 µM ([2]; 1 h, @ 1,000 (nM), read-out: [^3 H]OT: percent inhibition of radioligand at the given concentration): 64% | IC50 [3, 5]: 10000 nM

CC[C@H](C)[C@@H]1NC(=O)[C@@H](Cc2ccccc2)NC(=O)[C@@H]2CCCN2C(=O)[C@@H](Cc2ccccc2)N(C)C(=O)[C@@H]2CCCCN2C(=O)[C@H]2C=CCCN2C1=O [Example 24, Cyclo[D-phenylanyl-L-isoleucyl-D-(3,4-dehydro)-pipecolyl-L-pipecolyl-D-(N^α methyl)phenyalanyl-L-prolyl]] (cyclo(I[X1][Pip][dNMeF]P[dF]))
IC50 [1, 4]: 10000 nM | IC50 [2, 7]: 640 nM | IC50 [3, 5]: > 10000 nM

CC[C@H](C)[C@@H]1NC(=O)[C@@H](Cc2c[nH]c3ccccc23)NC(=O)[C@@H]2CCCN2C(=O)[C@@H](Cc2c[nH]cn2)NC(=O)[C@H](CCCNC(=O)OC(C)(C)C)NC(=O)[C@H]2CCCNN2C1=O [Example 128, c-[D-Tryptophanyl-L-isoleucyl-D-piperazyl(N^δ -Boc)-L-or nithyl-D-histidyl-L-prolyl]] (cyclo(I[X6][Orn](Boc)[dH]P[dW]))
IC50 [1, 4]: 10000 nM | IC50 [2, 7]: 118 nM | IC50 [3, 5]: 10000 nM

CN1C(=O)[C@@H]2CCCCN2C(=O)[C@H]2CCCCN2C(=O)[C@H](CCc2ccccc2)NC(=O)[C@@H](Cc2c[nH]c3ccccc23)NC(=O)[C@@H]2CCCN2C(=O)[C@H]1Cc1ccccc1 [Example 32, Cyclo[D-trytophanyl-L-homophenylalanyl-D-pipecolyl-L-pipecolyl-D-(N^α methyl)phenylalanyl-L-prolyl]] (cyclo(P[dW][hPhe][dPip][Pip][dNMeF]))
IC50 [1, 4]: > 10000 nM | IC50 [2, 7]: > 1000 nM | IC50 [3, 5]: > 10000 nM

CC[C@H](C)[C@@H]1NC(=O)[C@@H](Cc2ccc3ccccc3c2)NC(=O)[C@@H]2CCCN2C(=O)[C@@H](Cc2c[nH]cn2)NC(=O)[C@@H]2CNCCN2C(=O)[C@H]2CCCCN2C1=O [Example 159, c-[D-2-Naphthylalanyl-L-isoleucyl-D-pipecolyl-L-piperazin-2-yl-D-histidyl-L-prolyl]] (cyclo(I[dPip][Pip(4-aza)][dH]P[d2Nal]))
IC50 [1, 6]: 690 nM | IC50 [2, 7]: 1.8 nM | IC50 [3, 8]: 4650 nM

CC[C@H](C)[C@@H]1NC(=O)[C@@H](Cc2ccccc2)NC(=O)[C@@H]2CCCN2C(=O)[C@@H](Cc2ccccc2)NC(=O)[C@@H]2CCCNN2C(=O)[C@H]2CCCNN2C1=O [Example 96, c-[L-prolyl-D-phenylalanyl-L-isoleucyl-D-piperazyl-L-piperazyl-D-phenylalanyl]] (cyclo(I[X6][X12][dF]P[dF]))
IC50 [2, 7]: 245 nM | IC50 [3, 8]: 2900 nM

CC[C@H](C)[C@@H]1NC(=O)[C@@H](Cc2ccc(OC)cc2)NC(=O)[C@@H]2CCCN2C(=O)[C@@H](Cc2ccccc2)N(C)C(=O)[C@H](CCCCN)NC(=O)[C@H]2CCCCN2C1=O [Example 150, c-[D-(O-Methyl)Tyrosyl-L-isoleucyl-D-pipecolyl-L-lysyl-D-(N-methyl)phenylalanyl-L-prolyl]] (cyclo(I[dPip]K[dNMeF]P[dY](Me)))
inhibition at 1 µM [1, 9]: 62% | IC50 [2, 7]: 44 nM | IC50 [3, 5]: 10000 nM

CN1C(=O)[C@@H]2CCCCN2C(=O)[C@H]2CCCCN2C(=O)[C@H](Cc2ccccc2)NC(=O)[C@@H](Cc2c[nH]c3ccccc23)NC(=O)[C@@H]2CCCN2C(=O)[C@H]1Cc1ccccc1 [Example 134, c-[D-Tryptophanyl-L-phenylalanyl-D-pipecolyl-L-pipecolyl-D-(N-methyl)phenylalanyl-prolyl]] (cyclo(F[dPip][Pip][dNMeF]P[dW]))
IC50 [1, 6]: 8000 nM | IC50 [2, 7]: 110 nM

C-[D,L-3-(3-(7-Methyl)indolyl)alanyl-L-isoleucyl-D-pipecolyl-L-pipecolyl-D- histidyl-L-prolyl] [Example 155]
[^3 H]-AVP-V2: percent inhibition of radioligand at the given concentration [1]: 30% | [^3 H]OT: percent inhibition of radioligand at the given concentration ([2]; @ 100 (nM)): 48%

CC[C@H](C)[C@@H]1NC(=O)C(Cc2cn(C)c3ccccc23)NC(=O)[C@@H]2CCCN2C(=O)[C@@H](Cc2c[nH]cn2)NC(=O)[C@@H]2CCCCN2C(=O)[C@H]2CCCCN2C1=O (single isomer, unassigned) [153 lower Rf]
inhibition at 10 µM ([1]; 0.5 h, @ 10,000 (nM), read-out: [^3 H]-AVP-V2: percent inhibition of radioligand at the given concentration): 73%

CC[C@H](C)[C@@H]1NC(=O)[C@@H](Cc2ccc3ccccc3c2)NC(=O)[C@@H]2CCCN2C(=O)[C@@H](Cc2ccccc2)N(C)C(=O)[C@H](CCCCN)NC(=O)[C@H]2CCCCN2C1=O [Example 140, C-[D-2-Napthylalanyl-L-isoleucyl-D-pipecolyl-L-lysyl-D-(N-methyl)phenylalanyl-L-prolyl]] (cyclo([d2Nal]I[dPip]K[dNMeF]P))
inhibition at 1 µM [1, 9]: 84%

CC[C@H](C)[C@@H]1NC(=O)[C@@H](Cc2ccccc2)NC(=O)[C@@H]2CCCN2C(=O)[C@@H](Cc2ccccc2)N(C)C(=O)[C@@H]2CCCN2C(=O)[C@H]2CCCN2C1=O [Example 52, c-[D-Phenylalanyl-L-isoleucyl-D-prolyl-L-prolyl-N-methyl-D-phenylalanyl-L-prolyl]] (cyclo([dNMeF]P[dF]I[dP]P))
IC50 [2, 7]: 3400 nM

c-[D,L-3-(3-(1-Methyl)indolyl)alanyl-L-isoleucyl-D-pipecolyl-L-pipecolyl-D- histidyl-L-prolyl] [Example 153]
[^3 H]-AVP-V2: percent inhibition of radioligand at the given concentration [1]: 35% | [^3 H]OT: percent inhibition of radioligand at the given concentration ([2]; @ 10 (nM)): 48%

CC[C@H](C)[C@@H]1NC(=O)[C@@H](Cc2ccccc2)NC(=O)[C@@H]2CCCN2C(=O)[C@@H]([C@H](C)O)NC(=O)[C@@H]2CCCN2C(=O)[C@H]2CCCN2C1=O [Example 62, c-[D-Phenylalanyl-L-isoleucyl-D-prolyl-L-prolyl-D-threoninyl-L-prolyl]] (cyclo([dT]P[dF]I[dP]P))
IC50 [2, 7]: > 1000 nM

CC[C@H](C)[C@@H]1NC(=O)[C@@H](Cc2ccccc2)NC(=O)CNC(=O)[C@@H](CCC(N)=O)NC(=O)[C@@H]2CCCN2C(=O)[C@H]2CCCN2C1=O [Example 57] (cyclo([dF]I[dP]P[dQ]G))
IC50 [2, 7]: > 10000 nM

CC[C@H](C)[C@@H]1NC(=O)[C@@H](Cc2cccc3ccccc23)NC(=O)[C@@H]2CCCN2C(=O)[C@@H](Cc2cnc[nH]2)NC(=O)[C@@H]2CCCCN2C(=O)[C@H]2CCCCN2C1=O [Example 11, Cyclo[D-a-naphthalalanyl-L-isoleucyl-D-pipecolyl-L-pipecolyl-D-histidyl-L-prolyl]] (cyclo(I[dPip][Pip][dH]P[d1Nal]))
IC50 ([1]; Receptor Binding Results IC50 (nM) [^3 H]-AVP-V2): > 1000 nM | IC50 [3, 5]: > 1000 nM

CC[C@H](C)[C@@H]1NC(=O)[C@@H](Cc2ccccc2)NC(=O)[C@@H]2CCCN2C(=O)[C@@H](Cc2ccccc2)NC(=O)[C@H](CC(N)=O)NC(=O)[C@H](CCC(N)=O)NC1=O [Example 100] (cyclo([dF]IQN[dF]P))
IC50 [2, 7]: 5080 nM

c-[D-Phenylalanyl-L-isoleucinyl-D-pipecolyl-D-piperazin-2-yl(4-Cbz)-L-(BOM)histidyl-L-prolyl] [Example 93]
[^3 H]OT: percent inhibition of radioligand at the given concentration ([2]; @ 1,000 (nM)): 42%

CC[C@H](C)[C@@H]1NC(=O)[C@@H](Cc2ccccc2)NC(=O)[C@@H]2CCCN2C(=O)[C@@H](CCC(N)=O)NC(=O)[C@@H]2CCCN2C(=O)[C@H]2CCCN2C1=O [Example 68, c-[D-Phenylalanyl-L-isoleucyl-D-prolyl-L-prolyl-D-α-glutaminyl-L-prolyl]] (cyclo([dF]I[dP]P[dQ]P))
IC50 [2, 7]: > 10000 nM
